The values below come from paper PMC5908784, “Extracellular loops 2 and 3 of the calcitonin receptor selectively modify agonist binding and efficacy” (Biochemical Pharmacology, 2018).

As usually defined, the Emax is the maximal effect, on the per cent scale that the assay sets. The EC50 is the midpoint of the concentration-response curve. High values mean weaker potency, low ones greater potency.

Substitutions are numbered along the chain they refer to. Where a SMILES comes first, the peptide text is derived from it. Bridges are numbered along the chain shown (N, C = ends).

What all share (test): cAMP accumulation
Assay type in all cases: cell-based
Details in all cases: mean ± S.E.M.; for Emax: cAMP maximal response, SEM; for EC50: cAMP, CV1-FlpIn cells, 30 min, IBMX
(cAMP levels reflect the balance of adenylyl cyclase and phosphodiesterase activity.)

One assay addresses T1, hCTR I300A (Homo sapiens, UniProt P30988, I300A).
T1 construct: c-Myc (N); expressed in transfected cells
T1 sequence (P30988 25-474 I300A): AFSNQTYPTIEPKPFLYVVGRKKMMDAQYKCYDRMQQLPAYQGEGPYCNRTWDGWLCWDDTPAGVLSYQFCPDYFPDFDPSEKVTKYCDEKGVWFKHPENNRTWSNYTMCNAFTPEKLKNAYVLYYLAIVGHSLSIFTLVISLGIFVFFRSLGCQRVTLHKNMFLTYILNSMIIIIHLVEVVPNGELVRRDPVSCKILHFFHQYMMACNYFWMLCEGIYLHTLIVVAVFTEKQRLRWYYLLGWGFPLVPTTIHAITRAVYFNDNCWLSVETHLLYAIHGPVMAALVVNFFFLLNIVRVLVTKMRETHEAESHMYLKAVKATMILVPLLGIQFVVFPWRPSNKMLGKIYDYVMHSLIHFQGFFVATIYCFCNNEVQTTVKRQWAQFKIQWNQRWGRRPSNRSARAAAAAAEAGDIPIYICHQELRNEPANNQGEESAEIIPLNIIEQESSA
The method in brief:
(§1)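 Cells expressing the receptor mutant were seeded overnight, then stimulated with increasing ligand concentrations for 30 min in the presence of IBMX. After ethanol extraction and drying at room temperature, cAMP was measured and normalized to the 100 μM forskolin response. EC50 and Emax came from 3-parameter logistic fits.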

The target of the next assay is T2, hCTR W361A (Homo sapiens, UniProt P30988, W361A).
T2 construct: expressed in transfected cells
T2 sequence (P30988 25-474 W361A): T1 sequence (P30988 25-474 I300A) with A276I, W337A
The essentials:
as §1

The next assay concerns the target T3, hCTR K366A (Homo sapiens, UniProt P30988, K366A).
T3 construct: c-Myc (N); expressed in transfected cells
T3 sequence (P30988 25-474 K366A): T1 sequence (P30988 25-474 I300A) with A276I, K342A
The method in brief: as §1

For another assay, the target named is T4, hCTR V357A (Homo sapiens, UniProt P30988, V357A).
T4 construct: c-Myc (N); expressed in transfected cells
T4 sequence (P30988 25-474 V357A): T1 sequence (P30988 25-474 I300A) with A276I, V333A
The method in brief: as §1

A further assay concerns the target T5, hCTR V375A (Homo sapiens, UniProt P30988, V375A).
T5 construct: c-Myc (N); expressed in transfected cells
T5 sequence (P30988 25-474 V375A): T1 sequence (P30988 25-474 I300A) with A276I, V351A
The essentials:
as §1

Take `CC[C@H](C)[C@H](NC(=O)[C@H](C)NC(=O)[C@@H](NC(=O)[C@H](CCC(N)=O)NC(=O)[C@@H]1CCCN1C(=O)[C@H](Cc1ccccc1)NC(=O)[C@@H](NC(=O)[C@H](Cc1c[nH]cn1)NC(=O)[C@H](Cc1ccccc1)NC(=O)[C@H](CCCCN)NC(=O)[C@H](CC(N)=O)NC(=O)[C@H](Cc1ccccc1)NC(=O)[C@H](CC(=O)O)NC(=O)[C@H](CCC(N)=O)NC(=O)[C@@H](NC(=O)[C@H](Cc1ccc(O)cc1)NC(=O)[C@@H](NC(=O)CNC(=O)[C@H](CC(C)C)NC(=O)[C@H](CCSC)NC(=O)[C@@H]1CSSC[C@H](N)C(=O)NCC(=O)N[C@@H](CC(N)=O)C(=O)N[C@@H](CC(C)C)C(=O)N[C@@H](CO)C(=O)N[C@@H]([C@@H](C)O)C(=O)N1)[C@@H](C)O)[C@@H](C)O)[C@@H](C)O)[C@@H](C)O)C(=O)NCC(=O)N[C@H](C(=O)NCC(=O)N[C@@H](C)C(=O)N1CCC[C@H]1C(N)=O)C(C)C` [hCT]: the Emax on hCTR I300A was 116 ± 6%; on hCTR W361A it was 132 ± 9%; on hCTR K366A, 74 ± 3%; at hCTR V357A, 137 ± 6%; on hCTR V375A, 122 ± 7%.

For `CC(C)C[C@H](NC(=O)CNC(=O)[C@H](C)NC(=O)[C@H](CC(C)C)NC(=O)[C@H](CCCNC(=N)N)NC(=O)[C@H](Cc1cnc[nH]1)NC(=O)[C@@H](NC(=O)[C@@H](NC(=O)[C@@H]1CSSC[C@H](NC(=O)[C@H](C)N)C(=O)N[C@@H](CC(=O)O)C(=O)N[C@@H]([C@@H](C)O)C(=O)N[C@@H](C)C(=O)N[C@@H]([C@@H](C)O)C(=O)N1)C(C)C)[C@@H](C)O)C(=O)N[C@@H](CC(C)C)C(=O)N[C@@H](CO)C(=O)N[C@@H](CCCNC(=N)N)C(=O)N[C@@H](CO)C(=O)NCC(=O)NCC(=O)N[C@H](C(=O)N[C@H](C(=O)N[C@@H](CCCCN)C(=O)N[C@@H](CC(N)=O)C(=O)N[C@@H](CC(N)=O)C(=O)N[C@@H](Cc1ccccc1)C(=O)N[C@H](C(=O)N1CCC[C@H]1C(=O)N[C@H](C(=O)N[C@@H](CC(N)=O)C(=O)N[C@H](C(=O)NCC(=O)N[C@@H](CO)C(=O)N[C@@H](CCCCN)C(=O)N[C@@H](C)C(=O)N[C@@H](Cc1ccccc1)C(N)=O)C(C)C)[C@@H](C)O)C(C)C)C(C)C)C(C)C` [hαCGRP], the maximal effect (Emax) is 73 ± 14% on hCTR I300A; 102 ± 16% on hCTR W361A; 73 ± 13% at hCTR K366A; 82 ± 10% on hCTR V357A; 114 ± 17% at hCTR V375A. In addition, the concentration giving a half-maximal response (EC50) at hCTR I300A was 19.5 nM; at hCTR W361A, 97.7 nM; at hCTR K366A, 5.37 nM; at hCTR V357A it was 29.5 nM; at hCTR V375A, 20.4 nM.

Take `CSCC[C@H](NC(=O)CNC(=O)[C@H](CO)NC(=O)[C@H](Cc1ccccc1)NC(=O)[C@H](CCCNC(=N)N)NC(=O)[C@H](Cc1c[nH]cn1)NC(=O)[C@H](Cc1ccccc1)NC(=O)[C@H](CC(N)=O)NC(=O)[C@H](CC(N)=O)NC(=O)[C@H](CC(C)C)NC(=O)[C@H](CC(N)=O)NC(=O)[C@H](CCCNC(=N)N)NC(=O)[C@H](Cc1c[nH]c2ccccc12)NC(=O)[C@H](Cc1ccc(O)cc1)NC(=O)[C@H](C)NC(=O)[C@H](CO)NC(=O)[C@H](CC(C)C)NC(=O)[C@@H](NC(=O)[C@@H]1CSSC[C@H](N)C(=O)N[C@@H](CO)C(=O)N[C@@H](CC(N)=O)C(=O)N[C@@H](CC(C)C)C(=O)N[C@@H](CO)C(=O)N[C@@H]([C@@H](C)O)C(=O)N1)C(C)C)C(=O)NCC(=O)N[C@@H](Cc1ccccc1)C(=O)NCC(=O)N1CCC[C@H]1C(=O)N[C@@H](CCC(=O)O)C(=O)N[C@H](C(=O)N1CCC[C@H]1C(N)=O)[C@@H](C)O` [pCT] (H-CSNLSTCVLSAYWRNLNNFHRFSGMGFGPETP-NH2; disulfide 1-7): the Emax was 117 ± 11% on hCTR I300A; 133 ± 9% at hCTR W361A; 80 ± 8% on hCTR K366A; 154 ± 17% on hCTR V357A; 151 ± 8% at hCTR V375A. Besides, the concentration for a half-maximal effect (EC50) at hCTR I300A was 0.0501 nM; at hCTR W361A it was 0.148 nM; at hCTR K366A, 0.02 nM; at hCTR V357A it was 0.151 nM; on hCTR V375A it was 0.0316 nM.

As for `CC(C)C[C@H](NC(=O)[C@H](CC(N)=O)NC(=O)[C@H](CC(N)=O)NC(=O)[C@H](CO)NC(=O)[C@H](CO)NC(=O)[C@H](CCCNC(=N)N)NC(=O)[C@@H](NC(=O)[C@H](CC(C)C)NC(=O)[C@H](Cc1ccccc1)NC(=O)[C@H](CC(N)=O)NC(=O)[C@H](C)NC(=O)[C@H](CC(C)C)NC(=O)[C@H](CCCNC(=N)N)NC(=O)[C@H](CCC(N)=O)NC(=O)[C@@H](NC(=O)[C@H](C)NC(=O)[C@@H]1CSSC[C@H](NC(=O)[C@@H](N)CCCCN)C(=O)N[C@@H](CC(N)=O)C(=O)N[C@@H]([C@@H](C)O)C(=O)N[C@@H](C)C(=O)N[C@@H]([C@@H](C)O)C(=O)N1)[C@@H](C)O)C(C)C)C(=O)NCC(=O)N1CCC[C@H]1C(=O)N[C@H](C(=O)N[C@@H](CC(C)C)C(=O)N1CCC[C@H]1C(=O)N1CCC[C@H]1C(=O)N[C@H](C(=O)N[C@@H](CC(N)=O)C(=O)N[C@H](C(=O)NCC(=O)N[C@@H](CO)C(=O)N[C@@H](CC(N)=O)C(=O)N[C@H](C(=O)N[C@@H](Cc1ccc(O)cc1)C(N)=O)[C@@H](C)O)C(C)C)[C@@H](C)O)C(C)C` [rAmy], the Emax was 109 ± 10% on hCTR I300A; 102 ± 13% at hCTR W361A; 71 ± 7% at hCTR K366A; 88 ± 10% at hCTR V357A; 92 ± 9% on hCTR V375A.
